Columns and labels:
Haemonchus contortus [1] = assay: Activity in vitro (egg hatch / larval development, 96-well agar plate); details: 0.1 ppm; 6 days at 25° C.; reduced egg hatch, reduced development of L3, or paralysis & death of larvae
Experimental: (§1) Freshly harvested and cleaned nematode eggs are used to seed a suitably formatted 96-well plate containing the test substances to be evaluated for antiparasitic activity. Each compound is tested by serial dilution in order to determine its MED. The test compounds are embedded in an agar-based nutritive medium allowing the full development of eggs through to 3rd instar larvae. The plates are incubated for 6 days at 25° C. and 60% relative humidity (RH). Egg-hatching and ensuing larval development are recorded to identify a possible nematodicidal activity. Efficacy is expressed in percent reduced egg hatch, reduced development of L3, or paralysis & death of larvae of all stages.

[2] = tested on: Trichostrongylus colubriformis; assay: as above; details: 0.1 ppm; 6 days at 25° C.; reduced egg hatch, reduced development of L3, or paralysis & death of larvae
Experimental: as §1

Haemonchus contortus [3] = assay: In-vivo test on Mongolian gerbils using peroral application; design: species or system Mongolian gerbils (Meriones unguiculatus); details: repeated test 2a, gerbil, 0.32 mg/kg
Experimental: (§2) Six to eight week old Mongolian gerbils are infected through a stomach tube with ca. 2000 third instar larvae each of T. colubriformis and H. contortus. 6 days after infection, the gerbils are treated by peroral application with the test compounds, dissolved in a mixture of 2 parts DMSO and 1 part polyethylene glycol (PEG 400). On day 9 (3 days after treatment), when most of the H. contortus that are still present are late 4th instar larvae and most of the T. colubriformis are immature adults, the gerbils are killed in order to count the worms. The efficacy is calculated as the % reduction of the number of worms in each gerbil, compared with the geometric average of number of worms from 6 infected and untreated gerbils.
(§3) The above described in-vivo test on Trichostrongylus colubriformis (Tc) and Haemonchus contortus ([…]) was repeated with compounds 1.2, 1.3 and 1.5 from Table 1 and with the compounds of Examples 1a and 3a on pages 22-25 of WO 2008/96231.

[4] = tested on: Trichostrongylus colubriformis; assay: as above; design: species or system Mongolian gerbils (Meriones unguiculatus); details: repeated test 2a, gerbil, 0.32 mg/kg
Experimental: as §2, §3

Row | Structure (SMILES) | efficacy against Haemonchus contortus (Haemonchus contortus [1]) | efficacy against Trichostrongylus colubriformis [2] | Efficacy against Hc [%] (Haemonchus contortus [3]) | Efficacy against Tc [%] [4] [%]
1 | CC(C#N)(COc1cc(Cl)ccc1Oc1ccc(Cl)cc1Cl)NC(=O)c1ccc(S(C)(=O)=O)cc1 (stereo not drawn) [Compound 1.10, N-[1-cyano-1-methyl-2-(5-chloro-2-{2,4-dichlorophenoxy}-phenoxy)-ethyl]-4-methylsulfonyl-benzamide] | more than 90% | more than 90% |  | 
2 | CC(C#N)(COc1cc(C#N)ccc1Oc1ccc(OC(F)(F)F)cc1Cl)NC(=O)c1ccc(S(F)(F)(F)(F)F)cc1 (stereo not drawn) [Compound 1.5, N-[1-cyano-1-methyl-2-(5-cyano-2-{2-chloro-4-trifluoromethoxy-phenoxy}-phenoxy)-ethyl]-4-pentafluorothio-benzamide] |  |  | 100 | 99
3 | CC(C#N)(COc1cc(C#N)ccc1Oc1ccc(Cl)cc1Cl)NC(=O)c1ccc(S(F)(F)(F)(F)F)cc1 (stereo not drawn) [Compound 1.2, N-[1-cyano-1-methyl-2-(5-cyano-2-{2,4-dichlorophenoxy}-phenoxy)-ethyl]-4-pentafluorothio-benzamide] |  |  | 98 | 100
4 | CC(C#N)(COc1ccc(C#N)cc1C(F)(F)F)NC(=O)c1ccc(S(F)(F)(F)(F)F)cc1 (stereo not drawn) [reference compound] |  |  | 40 | 23
5 | CC(C#N)(COc1cc(C#N)ccc1Oc1ccc(F)cc1Br)NC(=O)c1ccc(S(F)(F)(F)(F)F)cc1 (stereo not drawn) [Compound 1.3, N-[1-cyano-1-methyl-2-(5-cyano-2-{2-bromo-4-fluorophenoxy}-phenoxy)-ethyl]-4-pentafluorothio-benzamide] |  |  | 100 | 98
6 | CC(C#N)(COc1cc(C#N)ccc1C(F)(F)F)NC(=O)c1ccc(S(F)(F)(F)(F)F)cc1 (stereo not drawn) [reference compound] |  |  | 85 | 33

Source: patent publication US8168681B2, “Amidoacetonitrile compounds and pesticidal composition thereof” (Novartis AG, priority 2008, dated 2012)
